Source: patent publication US12202835B2, “Substituted aromatic ring-linked dioxinoquinazolines and dioxinoquinolines as kinase inhibitors” (BEIJING SCITECH-MQ PHARMACEUTICALS LIMITED, priority 2018, dated 2025)

What was measured:
Type in all cases: biochemical
TRKA kinase = TRKA kinase (Homo sapiens (Human), UniProt P04629); assay: Assay of small molecular compounds for inhibiting the activity of TRKA kinase (LANCE TR-FRET)
Experimental: The assay of small molecular compounds for inhibiting the activity of TRKA kinase is based on the LANCE TR-FRET technology of Perkin Elmer Inc., and the assay method is as follows: • 1. […] 2.5 μL of the gradient-diluted compounds were taken with a transfer pipette to a 384-well plate. • 3. Addition of enzyme: 5 μL of 2×TRKA kinase solution (with a concentration of 2 nM) was taken with a transfer pipette to the corresponding reaction well of the 384-well plate, mixed well and pre-reacted at room temperature for 5 minutes. • 4. 2.5 μL 4× Ultra ULight-labeled TK Peptide (with a concentration of 400 nM)/ATP (with a concentration of 40 μM) mixture was taken with a transfer pipette to the corresponding reaction well of the 384-well plate. • 5. Negative control: 2.5 μL/well 4× substrate/ATP mixture and 7.5 μL 1× Kinase Assay Buffer were added to the wells of the 384-well plate.
(§1) Positive control: 2.5 μL/well 4× substrate/ATP mixture, 2.5 μL/well 1× Kinase Assay Buffer containing 4% DMSO, and 5 μL/well 2×TRKA kinase solution were added to the 384-well plate. The final concentration of DMSO in the reaction system was 1%. • 6. The mixture was mixed well and then centrifuged and reacted at room temperature in dark for 60 min. • 7. Termination of the enzymatic reaction: 5 μL of 4× stop solution was taken with a transfer pipette to the wells of the 384-well plate, mixed and then centrifuged, and reacted at room temperature for 5 min. • 8. Development of the reaction: 5 μL of 4× detection solution was taken with a transfer pipette to the wells of the 384-well plate for color development, and the mixture was mixed and then centrifuged and reacted at room temperature for 60 min. • 9. The 384-well plate was placed into the Envision plate reader and the signal was detected using the appropriate program.

VEGFR-2 kinase = VEGFR-2 kinase (Homo sapiens (Human), UniProt P35968); assay: Assay of small molecular compounds for inhibiting the activity of VEGFR-2 kinase (LANCE TR-FRET); details: read-out: VEGFR2 IC50
Experimental: (§2) The assay is based on the LANCE TR-FRET technology of Perkin Elmer Inc., and the assay method is as follows: • 1. Dilution of compounds: a total of 11 concentrations were obtained using a 3-fold gradient dilution from the highest concentration of 2500 nM (the maximum final concentration of the drug used in this assay was 2500 nM, and the minimum final concentration was 0.042 nM). • 2. 2.5 μL of the gradient-diluted compounds were taken with a transfer pipette to a 384-well plate. • 3. Addition of enzyme: 5 μL of 2×VEGFR2 kinase solution (with a concentration of 0.5 nM) was taken with a transfer pipette to the corresponding reaction well of the 384-well plate, mixed well and pre-reacted at room temperature for 30 minutes. • 4. 2.5 μL 4× Ultra ULight™-JAK-1 (Tyr1023) Peptide (with a concentration of 200 nM)/ATP (with a concentration of 40 μM) mixture was taken with a transfer pipette to the corresponding reaction well of the 384-well plate. • 5. Negative control: 2.5 μL/well 4× substrate/ATP mixture and 7.5 μL 1× Kinase Assay Buffer were added to the wells of the 384-well plate. • 6. Positive control: 2.5 μL/well 4× substrate/ATP mixture, 2.5 μL/well 1× Kinase Assay Buffer containing 16% DMSO, and 5 μL/well 2×VEGFR-2 kinase solution were added to the 384-well plate. The final concentration of DMSO in the reaction system was 4%. • 7. The mixture was mixed well and then centrifuged and reacted at room temperature in dark for 60 min. • 8. Termination of the enzymatic reaction: 5 μL of 4× stop solution was taken with a transfer pipette to the wells of the 384-well plate, mixed and then centrifuged, and reacted at room temperature for 5 min. • 9. Development of the reaction: 5 μL of 4× detection solution was taken with a transfer pipette to the wells of the 384-well plate for color development, and the mixture was mixed and then centrifuged and reacted at room temperature for 60 min. • 10. The 384-well plate was placed into the Envision plate reader and the signal was detected using the appropriate program. • 11. Analysis and processing of the raw data: The drug concentrations and the corresponding inhibition rates were input into GraphPad Prism5 for calculation, and the inhibition rate of the compounds were calculated as follows: inhibition rate (%)=(reading of positive well−reading of experimental well)/(reading of positive control well−reading of negative control well)×100%. Processing with GraphPad Prism5 software yielded the corresponding IC50 values (the concentration of the compound at which 50% of the highest inhibition of the enzyme is achieved).

c-MET kinase = c-MET kinase (Homo sapiens (Human), UniProt P08581); assay: Assay of small molecular compounds for inhibiting the activity of c-MET kinase (LANCE TR-FRET); details: read-out: CMET IC50
Experimental: as §2, with “2×c-MET” for “2×VEGFR2”, “2” for “0.5”, “5” for “30”, “400” for “200”, “2× c-MET” for “2×VEGFR-2”, “data: • 12.” for “data:”

MER kinase = MER kinase (Homo sapiens (Human), UniProt Q12866); assay: Assay of small molecular compounds for inhibiting the activity of MER kinase (LANCE TR-FRET)
Experimental: The assay of small molecular compounds for inhibiting the activity of MER kinase is based on the LANCE TR-FRET technology of Perkin Elmer Inc., and the assay method is as follows: • 1. Dilution of compounds: a total of 11 concentrations were obtained using a 3-fold gradient dilution from the highest concentration of 2500 nM (the maximum final concentration of the drug used in this assay was 2500 nM, and the minimum final concentration was 0.042 nM). • 2. 2.5 μL of the gradient-diluted compounds were taken with a transfer pipette to a 384-well plate. • 3. Addition of enzyme: 5 μL of 2×MER kinase solution (with a concentration of 1 nM) was taken with a transfer pipette to the corresponding reaction well of the 384-well plate, mixed well and pre-reacted at room temperature for 5 minutes. • 4. 2.5 μL 4× ULight-labeled Ploy GT (with a concentration of 200 nM)/ATP (with a concentration of 20 μM) mixture was taken with a transfer pipette to the corresponding reaction well of the 384-well plate. • 5. Negative control: 2.5 μL/well 4× substrate/ATP mixture and 7.5 μL 1× Kinase Assay Buffer were added to the wells of the 384-well plate.
as §1, with “2×MER” for “2×TRKA”, “program. • 10. Analysis and processing of the raw data:” for “program.”
The drug concentrations and the corresponding inhibition rates were input into GraphPad Prism5 for calculation, and the inhibition rate of the compounds were calculated as follows: inhibition rate (%)=(reading of positive well−reading of experimental well)/(reading of positive control well−reading of negative control well)×100%. Processing with GraphPad Prism5 software yielded the corresponding IC50 values (the concentration of the compound at which 50% of the highest inhibition of the enzyme is achieved).

TRKA kinase, sequence (P04629 33-796): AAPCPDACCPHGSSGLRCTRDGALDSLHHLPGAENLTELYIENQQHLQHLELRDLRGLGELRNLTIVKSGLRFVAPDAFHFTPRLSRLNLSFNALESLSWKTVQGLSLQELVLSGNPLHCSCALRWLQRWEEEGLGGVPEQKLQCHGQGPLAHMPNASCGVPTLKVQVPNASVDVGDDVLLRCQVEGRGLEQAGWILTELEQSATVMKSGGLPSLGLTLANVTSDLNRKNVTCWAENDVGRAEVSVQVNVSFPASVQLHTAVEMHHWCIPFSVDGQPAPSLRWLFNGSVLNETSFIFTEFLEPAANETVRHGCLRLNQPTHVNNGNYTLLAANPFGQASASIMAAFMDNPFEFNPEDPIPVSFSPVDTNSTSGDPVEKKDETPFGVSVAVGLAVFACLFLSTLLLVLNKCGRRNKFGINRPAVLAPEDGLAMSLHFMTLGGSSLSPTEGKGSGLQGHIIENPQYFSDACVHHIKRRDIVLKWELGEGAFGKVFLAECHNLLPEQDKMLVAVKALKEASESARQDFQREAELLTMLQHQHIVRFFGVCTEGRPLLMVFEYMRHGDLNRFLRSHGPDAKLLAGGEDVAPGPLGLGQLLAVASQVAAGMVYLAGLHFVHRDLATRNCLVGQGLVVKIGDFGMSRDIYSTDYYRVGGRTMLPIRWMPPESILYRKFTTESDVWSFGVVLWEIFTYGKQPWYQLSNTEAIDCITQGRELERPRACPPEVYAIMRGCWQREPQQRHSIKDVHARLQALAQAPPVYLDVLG
MER kinase, sequence (Q12866 21-999): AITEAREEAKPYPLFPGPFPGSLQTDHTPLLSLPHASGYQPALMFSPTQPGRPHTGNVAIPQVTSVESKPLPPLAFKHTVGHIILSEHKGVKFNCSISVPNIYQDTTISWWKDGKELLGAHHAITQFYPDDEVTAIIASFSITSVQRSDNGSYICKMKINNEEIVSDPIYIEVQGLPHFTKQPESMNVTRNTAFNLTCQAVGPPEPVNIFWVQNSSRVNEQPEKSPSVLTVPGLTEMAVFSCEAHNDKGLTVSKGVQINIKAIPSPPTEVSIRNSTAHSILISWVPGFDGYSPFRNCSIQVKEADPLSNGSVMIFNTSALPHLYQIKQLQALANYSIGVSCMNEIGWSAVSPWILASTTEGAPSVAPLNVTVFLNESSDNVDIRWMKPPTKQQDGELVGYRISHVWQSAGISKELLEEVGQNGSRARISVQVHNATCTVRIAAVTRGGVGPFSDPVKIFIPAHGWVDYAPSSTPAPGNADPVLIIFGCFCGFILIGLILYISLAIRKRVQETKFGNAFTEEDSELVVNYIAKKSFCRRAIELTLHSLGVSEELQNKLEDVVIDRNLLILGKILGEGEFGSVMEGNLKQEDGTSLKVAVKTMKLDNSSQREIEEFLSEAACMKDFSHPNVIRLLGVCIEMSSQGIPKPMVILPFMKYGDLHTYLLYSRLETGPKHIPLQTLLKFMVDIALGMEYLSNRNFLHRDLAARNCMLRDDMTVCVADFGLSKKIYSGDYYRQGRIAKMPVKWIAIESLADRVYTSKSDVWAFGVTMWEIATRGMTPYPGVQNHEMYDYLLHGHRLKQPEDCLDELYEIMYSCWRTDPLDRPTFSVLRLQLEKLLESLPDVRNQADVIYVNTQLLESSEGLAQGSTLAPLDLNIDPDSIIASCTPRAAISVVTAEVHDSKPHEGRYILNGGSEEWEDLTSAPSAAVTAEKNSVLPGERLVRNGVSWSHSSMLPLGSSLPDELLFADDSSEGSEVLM
VEGFR-2 kinase, sequence (P35968 20-1356): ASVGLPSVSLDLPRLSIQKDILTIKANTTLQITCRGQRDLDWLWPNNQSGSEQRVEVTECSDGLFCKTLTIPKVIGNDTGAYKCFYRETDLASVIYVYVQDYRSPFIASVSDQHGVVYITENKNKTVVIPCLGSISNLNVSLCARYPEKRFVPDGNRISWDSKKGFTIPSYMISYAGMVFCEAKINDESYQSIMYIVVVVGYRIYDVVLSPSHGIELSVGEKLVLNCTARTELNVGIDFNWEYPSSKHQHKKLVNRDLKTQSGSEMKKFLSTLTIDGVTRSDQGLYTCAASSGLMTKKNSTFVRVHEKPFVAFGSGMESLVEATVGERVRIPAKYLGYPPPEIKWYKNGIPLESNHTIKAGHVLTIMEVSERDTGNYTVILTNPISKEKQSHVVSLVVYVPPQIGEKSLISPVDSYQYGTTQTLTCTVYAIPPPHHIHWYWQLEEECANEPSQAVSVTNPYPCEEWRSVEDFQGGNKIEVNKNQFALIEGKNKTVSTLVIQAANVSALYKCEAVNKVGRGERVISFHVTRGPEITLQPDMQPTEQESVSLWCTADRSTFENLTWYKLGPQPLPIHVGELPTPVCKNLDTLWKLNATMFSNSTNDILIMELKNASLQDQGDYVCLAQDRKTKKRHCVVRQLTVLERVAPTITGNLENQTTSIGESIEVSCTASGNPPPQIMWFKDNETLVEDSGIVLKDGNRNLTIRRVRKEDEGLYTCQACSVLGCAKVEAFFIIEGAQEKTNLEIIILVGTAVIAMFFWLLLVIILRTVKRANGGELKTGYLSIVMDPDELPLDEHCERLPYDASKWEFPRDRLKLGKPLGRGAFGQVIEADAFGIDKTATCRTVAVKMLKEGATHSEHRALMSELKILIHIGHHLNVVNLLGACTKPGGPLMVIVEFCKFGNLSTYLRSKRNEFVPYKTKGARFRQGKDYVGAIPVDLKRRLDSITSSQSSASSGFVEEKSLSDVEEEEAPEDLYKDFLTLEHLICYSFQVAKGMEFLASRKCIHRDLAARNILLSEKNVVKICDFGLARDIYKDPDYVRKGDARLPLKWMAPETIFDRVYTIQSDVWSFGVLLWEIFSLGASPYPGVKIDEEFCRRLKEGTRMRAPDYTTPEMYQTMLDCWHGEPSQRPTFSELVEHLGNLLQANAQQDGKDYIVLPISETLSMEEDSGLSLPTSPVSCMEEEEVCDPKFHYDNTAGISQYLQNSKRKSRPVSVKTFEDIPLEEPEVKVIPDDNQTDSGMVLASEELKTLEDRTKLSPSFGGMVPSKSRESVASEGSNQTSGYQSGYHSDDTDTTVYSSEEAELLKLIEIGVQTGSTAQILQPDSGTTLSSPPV
c-MET kinase, sequence (P08581 25-1390): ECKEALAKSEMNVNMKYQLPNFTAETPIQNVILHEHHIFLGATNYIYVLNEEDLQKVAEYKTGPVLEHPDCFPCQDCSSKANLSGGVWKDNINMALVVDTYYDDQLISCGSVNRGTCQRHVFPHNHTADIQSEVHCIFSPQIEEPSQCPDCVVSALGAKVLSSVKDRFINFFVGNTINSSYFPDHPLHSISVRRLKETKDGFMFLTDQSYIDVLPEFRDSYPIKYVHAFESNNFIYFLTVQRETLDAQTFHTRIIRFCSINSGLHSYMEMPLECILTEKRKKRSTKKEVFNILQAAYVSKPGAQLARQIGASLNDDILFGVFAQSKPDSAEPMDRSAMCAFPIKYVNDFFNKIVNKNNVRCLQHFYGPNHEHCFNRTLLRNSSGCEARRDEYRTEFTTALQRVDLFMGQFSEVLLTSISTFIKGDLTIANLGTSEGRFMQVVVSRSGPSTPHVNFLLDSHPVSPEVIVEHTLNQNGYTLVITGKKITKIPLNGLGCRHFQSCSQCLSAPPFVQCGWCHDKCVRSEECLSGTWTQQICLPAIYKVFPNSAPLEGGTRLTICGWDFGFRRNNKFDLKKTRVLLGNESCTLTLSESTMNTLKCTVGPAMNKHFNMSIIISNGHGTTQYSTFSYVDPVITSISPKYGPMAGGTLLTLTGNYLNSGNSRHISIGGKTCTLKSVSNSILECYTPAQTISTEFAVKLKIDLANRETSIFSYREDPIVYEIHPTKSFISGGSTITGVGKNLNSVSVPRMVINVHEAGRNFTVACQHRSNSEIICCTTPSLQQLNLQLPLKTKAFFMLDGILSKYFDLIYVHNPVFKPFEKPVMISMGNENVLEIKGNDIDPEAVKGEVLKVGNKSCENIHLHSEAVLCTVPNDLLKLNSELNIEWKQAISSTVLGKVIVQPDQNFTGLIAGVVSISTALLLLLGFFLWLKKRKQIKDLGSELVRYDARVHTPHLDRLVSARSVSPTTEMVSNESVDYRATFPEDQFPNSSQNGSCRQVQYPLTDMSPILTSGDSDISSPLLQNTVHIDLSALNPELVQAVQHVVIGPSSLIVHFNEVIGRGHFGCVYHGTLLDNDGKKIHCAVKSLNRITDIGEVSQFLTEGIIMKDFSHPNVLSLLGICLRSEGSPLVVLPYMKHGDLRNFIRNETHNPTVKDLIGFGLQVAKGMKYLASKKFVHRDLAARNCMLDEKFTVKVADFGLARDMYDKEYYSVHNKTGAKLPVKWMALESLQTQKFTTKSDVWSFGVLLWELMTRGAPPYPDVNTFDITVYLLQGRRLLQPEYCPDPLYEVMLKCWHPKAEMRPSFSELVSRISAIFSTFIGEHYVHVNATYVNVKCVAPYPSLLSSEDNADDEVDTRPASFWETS

Compound	IC50 (TRKA kinase)	IC50 (VEGFR-2 kinase)	IC50 (c-MET kinase)	IC50 (MER kinase)
CCn1cc(C(=O)Nc2ccc(Oc3ccnc4cc(OC5CC5)c5c(c34)OCCO5)cc2)c(=O)n(-c2ccc(F)cc2)c1=O [Example 152, N-(4-((5-cyclopropyloxy-2,3-dihydro-[1,4]dioxino[2,3-f]quinolin-10-yl)oxy)phenyl)-3-(4-fluorophenyl)-1-ethyl-2,4-dioxo-1,2,3,4-tetrahydropyrimidine-5-carboxamide]	> 5000 nM	> 5000 nM	≤ 50 nM	–
COc1cc2nccc(Oc3ccc(NC(=O)c4cn(CC(=O)OC(C)(C)C)c(=O)n(-c5ccc(F)cc5)c4=O)cc3F)c2c2c1OCCO2 [Example 103, tert-butyl 2-(5-((3-fluoro-4-((5-methoxy-2,3-dihydro-[1,4]dioxino[2,3-f]quinolin-10-yl)oxy)phenyl)carbamoyl)-3-(4-fluorophenyl)-2,4-dioxo-3,4-dihydropyrimidin-1(2H)-yl)acetate]	–	500 to 5000 nM	–	50 to 500 nM
COc1cc2nccc(Oc3ccc(NC(=O)c4cn(C(C)C)c(=O)n(-c5ccc(C)cc5)c4=O)cc3F)c2c2c1OCCO2 [Example 107, N-(3-fluoro-4-((5-methoxy-2,3-dihydro-[1,4]dioxino[2,3-f]quinolin-10-yl)oxy)phenyl)-3-(4-methylphenyl)-1-isopropyl-2,4-dioxo-1,2,3,4-tetrahydropyrimidine-5-carboxamide]	500 to 5000 nM	–	50 to 500 nM	≤ 50 nM

Continued, values first:

IC50 (TRKA kinase)	IC50 (VEGFR-2 kinase)	IC50 (c-MET kinase)	IC50 (MER kinase)	Compound
50 to 500 nM	–	≤ 50 nM	≤ 50 nM	COc1cc2nccc(Oc3ccc(NC(=O)c4cn(CCCN5CCOCC5)c(=O)n(-c5ccc(F)cc5)c4=O)cc3F)c2c2c1OCCO2 [Example 102, N-(3-fluoro-4-((5-methoxy-2,3-dihydro-[1,4]dioxino[2,3-f]quinolin-10-yl)oxy)phenyl)-3-(4-fluorophenyl)-1-(3-morpholinopropyl)-2,4-dioxo-1,2,3,4-tetrahydropyrimidine-5-carboxamide]
500 to 5000 nM	500 to 5000 nM	≤ 50 nM	–	Cn1cc(C(=O)Nc2ccc(Oc3ccnc4cc(OC5CC5)c5c(c34)OCCO5)cc2)c(=O)n(-c2ccc(F)cc2)c1=O [Example 151, N-(4-((5-cyclopropyloxy-2,3-dihydro-[1,4]dioxino[2,3-f]quinolin-10-yl)oxy)phenyl)-3-(4-fluorophenyl)-1-methyl-2,4-dioxo-1,2,3,4-tetrahydropyrimidine-5-carboxamide]
500 to 5000 nM	–	50 to 500 nM	50 to 500 nM	COc1cc2nccc(Oc3ccc(NC(=O)c4cn(C(C)C)c(=O)n(-c5ccc(Cl)cc5)c4=O)cc3F)c2c2c1OCCO2 [Example 108, N-(3-fluoro-4-((5-methoxy-2,3-dihydro-[1,4]dioxino[2,3-f]quinolin-10-yl)oxy)phenyl)-3-(4-chlorophenyl)-1-isopropyl-2,4-dioxo-1,2,3,4-tetrahydropyrimidine-5-carboxamide]
50 to 500 nM	–	50 to 500 nM	50 to 500 nM	CCOc1cn(-c2ccc(F)cc2C)nc1C(=O)Nc1ccc(Oc2ccnc3cc(OC)c4c(c23)OCCO4)c(F)c1 [Example 25, 1-(4-fluoro-2-methylphenyl)-N-(3-fluoro-4-((5-methoxy-2,3-dihydro-[1,4]dioxino[2,3-f]quinolin-10-yl)oxy)phenyl)-4-ethoxy-1H-pyrazole-3-carboxamide]
50 to 500 nM	–	50 to 500 nM	500 to 5000 nM	COc1cc2nccc(Oc3ccc(NC(=O)c4ccn(-c5ccc(F)cc5C)n4)cc3F)c2c2c1OCCO2 [Example 23, 1-(4-fluoro-2-methylphenyl)-N-(3-fluoro-4-((5-methoxy-2,3-dihydro-[1,4]dioxino[2,3-f]quinolin-10-yl)oxy)phenyl)-1H-pyrazole-3-carboxamide]
